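Method: 48-hour compound exposure of cells in 96-well plates, five concentrations, linear interpolation of endpoints. GI50 is the concentration that inhibits growth by half.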 Calls of active or inactive are those of the source. No stated cut-off is given here; in the data, active = GI50 up to about 1.1 µM and inactive = higher.
What was measured:
Test in all cases: DTP human tumour cell line panel, 48 h
[1] = test system: 786-0
[2] = test system: A498
[3] = test system: A549
[4] = test system: ACHN
[5] = test system: BT-549
[6] = test system: CAKI-1
[7] = test system: CCRF-CEM
[8] = test system: COLO 205
[9] = test system: DU-145
[10] = test system: EKVX
[11] = test system: HCC 2998
[12] = test system: HCT-116
[13] = test system: HCT-15
[14] = test system: HL-60
[15] = test system: HOP-62
[16] = test system: HOP-92
[17] = test system: HT-29
[18] = test system: Hs-578T
[19] = test system: IGROV-1
[20] = test system: K562
[21] = test system: KM12
[22] = test system: LOX IMVI
[23] = test system: M14
[24] = test system: MCF7
[25] = test system: MDA-MB-435
[26] = test system: MDA-N
[27] = test system: MOLT-4
[28] = test system: Malme-3M
[29] = test system: NCI-H226
[30] = test system: NCI-H23
[31] = test system: NCI-H460
[32] = test system: NCI-H522
[33] = test system: NCI/ADR-RES
[34] = test system: OVCAR-3
[35] = test system: OVCAR-4
[36] = test system: OVCAR-5
[37] = test system: OVCAR-8
[38] = test system: PC-3
[39] = test system: RPMI-8226
[40] = test system: RXF 393
[41] = test system: SF-268
[42] = test system: SF-295
[43] = test system: SF-539
[44] = test system: SK-MEL-28
[45] = test system: SK-MEL-2
[46] = test system: SK-MEL-5
[47] = test system: SN12C
[48] = test system: SNB-19
[49] = test system: SNB-75
[50] = test system: SR
[51] = test system: SW-620
[52] = test system: T47D
[53] = test system: TK-10
[54] = test system: U-251
[55] = test system: UACC-257
[56] = test system: UACC-62
[57] = test system: UO-31

Which results are given for `O=C(O)C1CCCN1C(=O)c1cc(Cl)ccn1` (configuration not stated)?
GI50 [1]: > 100 µM (inactive); GI50 [2]: > 100 µM (inactive); GI50 [3]: > 100 µM (inactive); GI50 [4]: > 100 µM (inactive); GI50 [5]: > 100 µM (inactive); GI50 [6]: > 100 µM (inactive); GI50 [7]: > 100 µM (inactive); GI50 [8]: > 100 µM (inactive); GI50 [9]: > 100 µM (inactive); GI50 [10]: > 100 µM (inactive); GI50 [11]: > 100 µM (inactive); GI50 [12]: > 100 µM (inactive); GI50 [13]: > 100 µM; GI50 [14]: > 100 µM (inactive); GI50 [15]: > 100 µM (inactive); GI50 [16]: > 100 µM (inactive); GI50 [17]: > 100 µM (inactive); GI50 [18]: > 100 µM (inactive); GI50 [19]: > 100 µM (inactive); GI50 [20]: > 100 µM (inactive); GI50 [21]: > 100 µM (inactive); GI50 [22]: > 100 µM (inactive); GI50 [23]: > 100 µM (inactive); GI50 [24]: > 100 µM (inactive); GI50 [25]: > 100 µM (inactive); GI50 [26]: > 100 µM (inactive); GI50 [27]: > 100 µM (inactive); GI50 [28]: > 100 µM (inactive); GI50 [29]: > 100 µM (inactive); GI50 [30]: > 100 µM (inactive); GI50 [31]: > 100 µM (inactive); GI50 [32]: > 100 µM (inactive); GI50 [33]: > 100 µM (inactive); GI50 [34]: > 100 µM (inactive); GI50 [35]: > 100 µM (inactive); GI50 [36]: > 100 µM (inactive); GI50 [37]: > 100 µM (inactive); GI50 [38]: > 100 µM (inactive); GI50 [39]: > 100 µM (inactive); GI50 [40]: > 100 µM (inactive); GI50 [41]: > 100 µM (inactive); GI50 [42]: > 100 µM (inactive); GI50 [43]: > 100 µM (inactive); GI50 [44]: > 100 µM (inactive); GI50 [45]: > 100 µM (inactive); GI50 [46]: > 100 µM (inactive); GI50 [47]: > 100 µM (inactive); GI50 [48]: > 100 µM (inactive); GI50 [49]: > 100 µM (inactive); GI50 [50]: > 100 µM (inactive); GI50 [51]: > 100 µM (inactive); GI50 [52]: > 100 µM (inactive); GI50 [53]: > 100 µM (inactive); GI50 [54]: > 100 µM (inactive); GI50 [55]: > 100 µM (inactive); GI50 [56]: > 100 µM (inactive); GI50 [57]: > 100 µM (inactive)
